# Laboratory results: US20250032569A1, “COMPOSITION, IN PARTICULAR COSMETIC FORMULATION, COMPRISING A VERBASCOSIDE EXTRACT” (MEDENA AG, priority 2021, published 2025)
# Columns and labels:
# [1] = In vitro spectrophotometric SPF calculated by the Sayre equation (Eq. 1); assay type: physicochemical
# Procedure: Each sample (1 ml) was placed in a 1 cm quartz cell. The absorbance was measured between 250-600 nm at an interval of every 1 nm using a Varian UV/Vis spectrophotometer (Cary 50 Scan). The following parameters were measured and calculated for each sample assuming standard application to the skin—2 mg/cm^2: • the SPF values. • the critical wavelength λC • the UVA/UVB ratio 1. […]
# Each sample (1 ml) was placed in a 1 cm quartz cell. The absorbance was measured between 250-600 nm at an interval of every 1 nm using a Varian UV/Vis spectrophotometer (Cary 50 Scan). The following parameters were measured and calculated for each sample assuming standard application to the skin—2 mg/cm^2: • the SPF values. • the critical wavelength λC • the UVA/UVB ratio
# The SPF values in vitro were calculated according to the method described by Sayre et al., (Sayre, R M; Agin, P P; LeVee, G J; Marlowe, E. A comparison of in vivo and in vitro testing of sunscreening formulas, Photochem. Photobiol. 1979, 29, 559-566). The calculation was done using Equation 1: […]
# where Ss(λ) is the spectral irradiance, Ser(λ) is the CIE erythema action spectrum and T(λ) is the transmission of the sunscreen. The values of Ss(λ) and Ser(λ) were taken from the literature (B. L. Diffey, J. Robson. A new substrate to measure sunscreen protection factors throughout the ultraviolet spectrum, J. Soc. Cosmet. Chem. 1989, 40, 127-133). […]
# SPF values were calculated using Eq. 1 for sun protective cosmetics applied at 2 mg/cm^2 (standard application).
# The same methods and equations as in the case of plant extracts were applied.
# Solutions of sunscreens at concentrations 0.001% were prepared in duplicate and UV-visible absorption spectra were recorded over the range of 250-600 nm (FIG. 1). On the basis of these spectra, the transmission of the sunscreen (T) was found from monochromatic absorbance values at wavelength λ: T=10^−A(λ).
# The SPF in vitro was calculated according to the method described by Sayre et al., (Sayre, R M; Agin, P P; LeVee, G J; Marlowe, E. A comparison of in vivo and in vitro testing of sunscreening formulas, Photochem. Photobiol. 1979, 29, 559-566) following equation 1: […]
# where Ss(λ) is the spectral irradiance, Ser(λ) the CIE erythema action spectrum and T(λ) the trans-mission of the sunscreen. Data for Ss(λ) and Ser(λ) are available in the literature (B. L. Diffey, J. Robson. A new substrate to measure sunscreen protection factors throughout the ultraviolet spectrum, J. Soc. Cosmet. Chem. 1989, 40, 127-133).
# The SPF values were calculated using Eq 1 with the application conditions 2 mg/cm^2 (Standard application recommended by the European Agency).
# The SPF value for lotions were calculated using Eq. 1 for three application conditions at 2 mg/cm^2 (standard application), 2.5 mg/cm^2 and 3 mg/cm^2. In the same Table 22, critical wavelength and the UVA/UVB ratios are shown.
# [2] = Critical wavelength (λC) from absorption spectra (Eq. 2); assay type: physicochemical; settings: for critical wavelength: chemical sunscreen, no concentration stated
# Procedure: The Critical Wavelength λC is the wavelength, where the area under the absorbance spectrum for the irradiated product from 290 nm to λC is equal to 90% of the integral value of the absorbance spectrum from 290 to 400 nm and was calculated using Eq. 2:
# where A (λ)=monochromatic absorbance values at wavelength λ. The critical wavelength was determined for all samples in order to assess a degree of UVA protection. In cases where the critical wavelength is lower than 370 nm, the protection from UVA is less evident.
# The Critical Wavelength λC value for the test product was defined as that wavelength where the area under the absorbance spectrum of the sample from 290 nm to λC is 90% of the integral of the absorbance spectrum from 290 to 400 nm and is calculated using Eq. 2:
# [formula] • A(λ)=monochromatic absorbance values at wavelength λ
# [3] = UVA/UVB ratio from absorption spectra (Eq. 3) and Boots UVA Star Rating; assay type: physicochemical; settings: for ratio UVA/UVB: chemical sunscreen, no concentration stated
# Procedure: Critical Wavelength (λC) and the UVA/UVB ratios were also calculated from the absorption spectra and were collected in Table 2. […] According to these International indications, aqueous solutions of Haberlea rhodopensis with different concentrations of myconoside can be attributed to the group of good protection (2 UVA Star Rating).
# In order to further characterize solutions as skin photo-protectors from UVA, the UVA/UVB ratio was calculated using Eq. 3: […]
# In order to characterize the ability of creams to protect skin against UVA the UVA/UVB ratio was calculated using Eq. 3: […]
# [4] = Photo-stability under solar imitating UVA+UVB irradiation; assay type: physicochemical; settings: absorption spectra without and after up to 40 min irradiation
# [5] = SPF calculated by modified Sayre method; assay type: physicochemical
# From the text: In the following Table 20, there are SPF values obtained in vitro spectrophotometrically, which have been calculated by a classical Sayre method (Sayre, R M; Agin, P P; LeVee, G J; Marlowe, E. A comparison of in vivo and in vitro testing of sunscreening formulas, Photochem. Photobiol. 1979, 29, 559-566) and modified Sayre method, which gives results similar to those obtained in the in vivo tests recommended by COLIPA.
# • (1) For water insoluble chemical filters, the modified Sayre method gives results close to those calculated by Simulator-Calculator (BASF) and the in vivo tests. The Simulator-Calculator uses the modified Sayre method assuming an exponentiation equal to 0.827 (X^0.827). • (2) For water soluble natural filters, the same modified Sayre method would give results close to those obtained by the in vivo tests (predicted by Simulator-Calculator). Examples of Cosmetic Compositions with Fully Natural Sun Protective Factors • 1. Sun protective lotion SPF 50+, high UV-A protection • 2. Sun protective cream SPF 50+, high UV-A protection • 3. Sun protective serum for pregnant and milking women SPF 50+, high UV-A protection • 4. Sun protective milk for babies SPF 50+, high UV-A protection • 5. Sun protective lotion SPF 20-30, high UV-A protection for people with highly sensitive skin E. Analysis of Sun Protective Parameters of Two Lotions and Cream Containing Lippia citriodora Extract with 40% of Verbascoside.
# [6] = organic (synthetic) chemical sunscreens, Table 1; cited from earlier work
# [7] = Solubility of chemical UV filters
# [8] = UV filter 0.5% in sun protective cosmetic (Table 20)
# [9] = UV filter 1.0% in sun protective cosmetic (Table 20)
# [10] = UV filter 2.5% in sun protective cosmetic (Table 20)
# [11] = chemical UV filter 0.5% in sun protective solution (Tables 12-19)
# [12] = chemical UV filter 1% in sun protective solution (Tables 12-19)
# [13] = chemical UV filter 2.5% in sun protective solution (Tables 12-19)
# [14] = chemical UV filter 5% in sun protective solution (Tables 12-19)
# [15] = chemical UV filter 10% in sun protective solution (Tables 12-19)
# [16] = chemical UV filter 0.5% in sun protective solution
# [17] = chemical UV filter 1% in sun protective solution
# [18] = chemical UV filter 2.5% in sun protective solution
# [19] = chemical UV filter 5% in sun protective solution
# [20] = chemical UV filter 10% in sun protective solution
# [21] = UV filter 0.5% in sun protective cosmetic
# [22] = UV filter 1.0% in sun protective cosmetic
# [23] = UV filter 2.5% in sun protective cosmetic
# [24] = UV filter 5% in sun protective cosmetic
# [25] = UV filter 10% in sun protective cosmetic
# [26] = UV filter 5% in sun protective cosmetic (Table 20)
molecule,measurement,setting,value
CCCCC(CC)COc1ccc(-c2nc(-c3ccc(OC)cc3)nc(-c3ccc(OCC(CC)CCCC)cc3O)n2)c(O)c1 (stereo not drawn) [Bis-ethylhexyloxyphenol methoxyphenyl triazine],SPF values calculated by the Sayre equation,[1]; [8],4.8
same,SPF values calculated by the Sayre equation,[1]; [9],19
same,SPF values calculated by the Sayre equation,[1]; [10],93
same,SPF values,[1]; [11],5.7
same,SPF values,[1]; [12],25
same,SPF,[1]; chemical UV filter 1.5%,60
same,SPF,[1]; chemical UV filter 2.0%,89
same,SPF values,[1]; [13],60
same,SPF values,[1]; [14],89
same,SPF values,[1]; [15],107
same,Critical wavelength (λC),[2]; [16],365 nm
same,Critical wavelength (λC),[2]; [17],365 nm
same,Critical wavelength (λC),[2]; [18],365 nm
same,Critical wavelength (λC),[2]; [19],365 nm
same,Critical wavelength (λC),[2]; [20],365 nm
same,critical wavelength,[2],365 nm
same,UVA/UVB,[3]; [16],0.50
same,UVA/UVB,[3]; [17],0.50
same,UVA/UVB,[3]; [18],0.50
same,UVA/UVB,[3]; [19],0.50
same,UVA/UVB,[3]; [20],0.50
same,ratio UVA/UVB,[3],0.50
same,Photo-stability to solar imitating UVA+UVB irradiation,[4],HIGHLY unstable
same,SPF values calculated by Modified Sayre,[5]; [21],4.2
same,SPF values calculated by Modified Sayre,[5]; [22],7.5
same,SPF values calculated by Modified Sayre,[5]; [23],16.1
same,SPF values calculated by Modified Sayre,[5]; [24],29
same,SPF values calculated by Modified Sayre,[5]; [25],50
CC(C)(C)CC(C)(C)c1cc(Cc2cc(C(C)(C)CC(C)(C)C)cc(-n3nc4ccccc4n3)c2O)c(O)c(-n2nc3ccccc3n2)c1 [Tinosorb M],Absorbs UV-B,[6],UV-B
CCCCC(CC)COc1ccc(-c2nc(-c3ccc(OC)cc3)nc(-c3ccc(OCC(CC)CCCC)cc3O)n2)c(O)c1 (stereo not drawn) [Tinosorb S],Absorbs UV-A,[6],UV-A
same,Absorbs UV-B,[6],UV-B
CCCCC(CC)COC(=O)c1ccc(Nc2nc(Nc3ccc(C(=O)NC(C)(C)C)cc3)nc(Nc3ccc(C(=O)OCC(CC)CCCC)cc3)n2)cc1 (stereo not drawn) [Uvasorb HEB],Absorbs UV-B,[6],UV-B
CCCCCCOC(=O)c1ccccc1C(=O)c1ccc(N(CC)CC)cc1O [Uvinul A plus],Absorbs UV-A,[6],UV-A
"CCCCCCCCCCCCc1cc(C)cc(-n2nc3ccccc3n2)c1O [benzotriazolyl dodecyl p-cresol, Benzotriazolyl dodecyl p-cresol]",SPF values calculated by the Sayre equation,[1]; [8],2.1
same,SPF values calculated by the Sayre equation,[1]; [9],5
same,SPF values calculated by the Sayre equation,[1]; [10],29
same,SPF values calculated by the Sayre equation,[1]; [26],91
same,SPF values calculated by the Sayre equation,[1]; UV filter 10% in sun protective cosmetic (Table 20),132
same,SPF values,[1]; [11],2.4
same,SPF values,[1]; [12],6
same,SPF values,[1]; [13],41
same,SPF values,[1]; [14],105
same,SPF values,[1]; [15],157
same,Critical wavelength (λC),[2]; [16],363 nm
same,Critical wavelength (λC),[2]; [17],363 nm
same,Critical wavelength (λC),[2]; [18],363 nm
same,Critical wavelength (λC),[2]; [19],363 nm
same,Critical wavelength (λC),[2]; [20],363 nm
same,critical wavelength,[2],363 nm
same,UVA/UVB,[3]; [16],0.62
same,UVA/UVB,[3]; [17],0.62
same,UVA/UVB,[3]; [18],0.62
same,UVA/UVB,[3]; [19],0.62
same,UVA/UVB,[3]; [20],0.62
same,ratio UVA/UVB,[3],0.62
same,SPF values calculated by Modified Sayre,[5]; [21],2.0
same,SPF values calculated by Modified Sayre,[5]; [22],3.1
same,SPF values calculated by Modified Sayre,[5]; [23],5.4
same,SPF values calculated by Modified Sayre,[5]; [24],8.3
same,SPF values calculated by Modified Sayre,[5]; [25],12.7
same,SPF values calculated by Modified Sayre,[5]; UV filter 20% in sun protective cosmetic,19
same,Solubility in water,[7],insoluble in water
"CCCCC(CC)COC(=O)C=Cc1ccc(OC)cc1 (stereo not drawn) [octyl methoxycinnamate, Ethylhexyl methoxycinnamate]",Photo-stability to solar imitating UVA+UVB irradiation,[4],HIGHLY unstable
butylmethoxydibenzoylmethane [avobenzone],SPF values calculated by the Sayre equation,[1]; [8],1.5
same,SPF values calculated by the Sayre equation,[1]; [9],2.0
same,SPF values calculated by the Sayre equation,[1]; [10],6.1
same,SPF values calculated by the Sayre equation,[1]; [26],32
same,SPF values,[1]; [11],1.9
same,SPF values,[1]; [12],3.0
same,SPF values,[1]; [13],19
same,SPF values,[1]; [14],297
same,Critical wavelength (λC),[2]; [16],385 nm
same,Critical wavelength (λC),[2]; [17],385 nm
same,Critical wavelength (λC),[2]; [18],385 nm
same,Critical wavelength (λC),[2]; [19],385 nm
same,critical wavelength,[2],385 nm
same,Photo-stability to solar imitating UVA+UVB irradiation,[4],HIGHLY unstable
same,SPF values calculated by Modified Sayre,[5]; [21],1.5
same,SPF values calculated by Modified Sayre,[5]; [22],2.1
same,SPF values calculated by Modified Sayre,[5]; [23],3.2
same,SPF values calculated by Modified Sayre,[5]; [24],4.4
